Assay results: patent US20230399312A1, “SUBSTITUTED PYRIMIDINES AND METHODS OF USE” (THERAVANCE BIOPHARMA R&D IP, LLC, priority 2020, published 2023)

How the values were obtained:
[1] = target: T1, recombinant human ALK5 (TGF-βR1) protein (Homo sapiens, UniProt P36897); assay: Biochemical ALK5 (TGF-βR1) assay to measure pKi (LANCE Ultra ULight kinase assay); details: apparent pKi, converted from pIC50 by Cheng-Prusoff
T1 construct: purchased Life Technologies PR9075A
T1 sequence (P36897 34-503): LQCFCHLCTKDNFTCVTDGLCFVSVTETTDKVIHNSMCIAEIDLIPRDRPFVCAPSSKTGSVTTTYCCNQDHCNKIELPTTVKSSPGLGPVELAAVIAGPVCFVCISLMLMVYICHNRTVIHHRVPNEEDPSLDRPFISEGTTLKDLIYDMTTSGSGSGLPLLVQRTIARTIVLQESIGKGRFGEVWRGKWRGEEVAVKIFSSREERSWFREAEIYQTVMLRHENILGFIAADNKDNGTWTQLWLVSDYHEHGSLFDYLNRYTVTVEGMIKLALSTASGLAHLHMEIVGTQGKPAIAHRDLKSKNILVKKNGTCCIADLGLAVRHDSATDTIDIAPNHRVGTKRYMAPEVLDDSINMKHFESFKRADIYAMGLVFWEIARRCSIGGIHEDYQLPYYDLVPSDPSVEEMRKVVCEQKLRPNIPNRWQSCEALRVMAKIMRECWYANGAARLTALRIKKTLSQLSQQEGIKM
Description: The assays were performed in a 384-well plate (24 columns×16 wells/rows). An Echo®550 Liquid Handler (Labcyte) was used to prepare various intermediate concentrations of compounds of the present disclosure in 100% DMSO. From the intermediate concentrations, a range of concentrations (from […] to 25 μM corresponding to volumes up to 105 nL) were prepared and ejected into a final assay plate to be used to create individual dose response curves for each of the subject compounds. To a separate column within the assay plate, 105 nL of DMSO in each well was used to establish a maximum assay signal. Additionally, 105 nL of 100 μM SD-208, a selective TGF-βR1 inhibitor (Catalog #S7624, Selleck Chemicals), was used in another column of wells to establish a minimal assay signal.
With a multidrop dispenser, 8 μL of enzyme mixture (1.25× final) was added to each well. […] The plate was then sealed with an adhesive seal and allowed to equilibrate for 60 minutes at room temperature.
Next, 2 μL of 125 μM ATP (5×final, 125 μM ATP prepared in assay buffer with 2 mM DTT) was added to the incubated mixtures, covered with a MicroClime® Environmental Lid (Product No. LLS-0310, Labcyte) and immediately transferred to 37° C. The reactions were allowed to proceed at 37° C. for 60 minutes before terminating with the addition of 10 μL of detection antibody (LANCE® (lanthanide chelate excite) Ultra Europium-anti-phospo-DNA Topoisomerase 2-alpha (Thr1342)) in detection mixture (12 mM EDTA, 4 nM detection antibody prepared in detection buffer (50 mM Tris-HCl, 150 mM NaCl, 0.5% BSA (Fraction V), pH 7.0)) at room temperature. The plate was then read on a Perkin Elmer EnVision Plate Reader using europium specific reader settings with excitation and emission wavelengths set to 320 or 340 nm and 665 nm, respectively.
For dose-response analyses, percent inhibition versus compound concentrations were plotted, and pIC50 values were determined from a 4-parameter robust fit model with GraphPad Prism V5 Software (GraphPad Software, Inc., La Jolla, CA). This model obtains pIC50 values by fitting the sigmoidal dose-response (variable slope) equation to the data. Results were expressed as pIC50 (negative logarithm of IC50) and subsequently converted to pKi (negative logarithm of dissociate constant, Ki) using the Cheng-Prusoff equation. The higher the value of pKi (lower value of Ki), the greater the inhibition of ALK5 activity.

[2] = tested on: TGF-β-stimulated SMAD3 phosphorylation in BEAS-2B cells; assay: Cellular ALK5 potency assay, inhibition of TGF-β stimulated pSMAD3 formation in BEAS-2B cells; format: cell-based; details: Homo sapiens, pSMAD3, TGF-β 10 ng/mL, read-out: BEAS2B pIC50 (converted)
Description: The potency of compounds of the present disclosure for inhibition of TGF-β-stimulated SMAD3 phosphorylation was measured in BEAS-2B cells, a human lung epithelial cell line. TGF-β signals through activin receptor-like kinase 5 (ALK5) immediately prior to SMAD3 phosphorylation.
BEAS-2B cells were grown using 50% DMEM (Life Technologies) and 50% F-12 (Life Technologies) media, supplemented with 10% Fetal Bovine Serum (ATCC), 25 mM HEPES (Life Technologies), and 1×Pen-Strep (Life Technologies). Cells were cultured in a humidified incubator set at 37° C., 5% CO2, and trypsonized using 0.25% Trypsin with 0.5% polyvinylpyrrolidone (PVP).
For the assay, BEAS-2B cells were seeded at 7,500 cells/well (25 μL/well) in a 384-well plate and cultured overnight. Before dosing, growth media was aspirated and the wells were rinsed with HBSS Buffer (HBSS with Calcium and Magnesium, Life Technologies) supplemented with 25 mM HEPES (Life Technologies) and 1% Bovine Serum Albumin (Roche). Compounds were serially diluted in DMSO, then further diluted with supplemented HBSS Buffer (50 μL/well) to create a compound plate 3× of the final assay concentration, at 0.3% DMSO. The diluted compounds were then added to the cells (8 μL/well) and incubated at 37° C., 5% CO2 for 1 hour. After the compound incubation, TGF-β (R&D Systems) reconstituted in supplemented HBSS Buffer was added to the cells ([…], final concentration 10 ng/mL) and incubated for a further 30 minutes, after which the cells were immediately lysed with AlphaLISA lysis buffer (PerkinElmer). AlphaLISA Acceptor and Detector beads (PerkinElmer) were added 2 hours apart, then incubated overnight to be read the next day. The potency of the compound was determined through analysis of dose-dependent quantified changes in pSMAD3 signal from baseline (non-compound treated TGF-β stimulated cells). Data are expressed as pIC50 (negative decadic logarithm IC50) values.

| SMILES | Ki [1] [nM] | IC50 [2] [nM] |
| --- | --- | --- |
| Cc1cccc(-c2nccc(Nc3ccnc(Nc4ccc(N5CCNCC5)c(C#N)c4)n3)n2)n1 [Compound 447, 5-[[4-[[2-(6-methyl-2-pyridyl)pyrimidin-4-yl]amino]pyrimidin-2-yl]amino]-2-piperazin-1-yl-benzonitrile] | 0.0398 to 0.316 | 25.1 to 158 |
| Cc1cccc(-c2nccc(Nc3ccnc(Nc4ccc(N5C[C@H]6CC[C@@H](C5)N6)cc4)n3)n2)n1 [Compound 34, N4-[2-(6-methyl-2-pyridyl)pyrimidin-4-yl]-N2-[4-[rac-(1S,5R)-3,8-diazabicyclo[3.2.1]octan-3-yl]phenyl]pyrimidine-2,4-diamine] | 0.0398 to 0.316 | 25.1 to 158 |
| COC(=O)Cc1cc(Nc2nccc(Nc3ccnc(-c4cccc(C)n4)n3)n2)ccc1N1CCNCC1 [Compound 252, methyl 2-[5-[[4-[[2-(6-methyl-2-pyridyl)pyrimidin-4-yl]amino]pyrimidin-2-yl]amino]-2-piperazin-1-yl-phenyl]acetate] | ≤ 0.0316 | 25.1 to 158 |
| Cc1cccc(-c2nccc(Nc3ccnc(Nc4ccc(CN5CCCNCC5)cc4)n3)n2)n1 [Compound 377, N2-[4-(1,4-diazepan-1-ylmethyl)phenyl]-N4-[2-(6-methyl-2-pyridyl)pyrimidin-4-yl]pyrimidine-2,4-diamine] | 0.0398 to 0.316 | 25.1 to 158 |
| Cc1cccc(-c2nccc(Nc3ccnc(Nc4ccc(C)c(CN5C6CCC5CNC6)c4)n3)n2)n1 [Compound 458, N2-[3-(3,8-diazabicyclo[3.2.1]octan-8-ylmethyl)-4-methyl-phenyl]-N4-[2-(6-methyl-2-pyridyl)pyrimidin-4-yl]pyrimidine-2,4-diamine] | 0.0398 to 0.316 | 25.1 to 158 |
| Cc1cccc(-c2nccc(Nc3ccnc(Nc4ccc(C(=O)OC5CCNCC5)s4)n3)n2)n1 [Compound 239, 4-piperidyl 5-[[4-[[2-(6-methyl-2-pyridyl)pyrimidin-4-yl]amino]pyrimidin-2-yl]amino]thiophene-2-carboxylate] | 0.0398 to 0.316 | 25.1 to 158 |
| Cc1cccc(-c2nccc(Nc3ccnc(Nc4ccc(N5CCNC(C)C5)cc4)n3)n2)n1 (racemic) [Compound 528, N4-[2-(6-methyl-2-pyridyl)pyrimidin-4-yl]-N2-[4-[rac-(3S)-3-methylpiperazin-1-yl]phenyl]pyrimidine-2,4-diamine] | 0.0398 to 0.316 |  |
| Cc1cccc(-c2nccc(Nc3ccnc(Nc4ccc(CN5CC[C@@H](O)C5)cc4)n3)n2)n1 [Compound 319, (3R)-1-[[4-[[4-[[2-(6-methyl-2-pyridyl)pyrimidin-4-yl]amino]pyrimidin-2-yl]amino]phenyl]methyl] pyrrolidin-3-ol] | ≤ 0.0316 |  |
| CNC(=O)Cc1cc(Nc2ccnc(Nc3ccc(N4CCNCC4)cc3)n2)nc(-c2cccc(C)n2)n1 [Compound 309, N-methyl-2-[2-(6-methyl-2-pyridyl)-6-[[2-(4-piperazin-1-ylanilino)pyrimidin-4-yl]amino]pyrimidin-4-yl]acetamide] |  | 200 to 1260 |
| COC(=O)c1ccc(Nc2nccc(Nc3nc(-c4cccc(C)n4)ncc3C(=O)OC)n2)cc1 [Compound 468, methyl 4-[[2-(4-methoxycarbonylanilino)pyrimidin-4-yl]amino]-2-(6-methyl-2-pyridyl) pyrimidine-5-carboxylate] |  | 200 to 1260 |
| Cc1cccc(-c2ncc(C(=O)O)c(Nc3ccnc(Nc4ccc(N)cc4)n3)n2)n1 [Compound 26, 4-[[2-(4-aminoanilino)pyrimidin-4-yl]amino]-2-(6-methyl-2-pyridyl)pyrimidine-5-carboxylic acid] |  | 1580 to 10000 |
| Cc1cccc(-c2nccc(Nc3ccnc(Nc4ccc(N5CCNC(C)C5)cc4)n3)n2)n1 (racemic) [Compound 7, N4-[2-(6-methyl-2-pyridyl)pyrimidin-4-yl]-N2-[4-[rac-(3R)-3-methylpiperazin-1-yl]phenyl]pyrimidine-2,4-diamine] |  | 25.1 to 158 |
| Cc1cccc(-c2nccc(Nc3ccnc(Nc4ccc(CN5CC(CO)C5)cc4)n3)n2)n1 [Compound 266, [1-[[4-[[4-[[2-(6-methyl-2-pyridyl)pyrimidin-4-yl]amino]pyrimidin-2-yl]amino]phenyl]methyl]azetidin-3-yl]methanol] | 0.0398 to 0.316 |  |

Continued, in another order:

| Ki [1] [nM] | SMILES | IC50 [2] [nM] |
| --- | --- | --- |
| 0.398 to 3.16 | Cc1cccc(-c2nccc(Nc3ccnc(Nc4cncc(C(=O)OCC5CCNCC5)c4)n3)n2)n1 [Compound 606, 4-piperidylmethyl 5-[[4-[[2-(6-methyl-2-pyridyl)pyrimidin-4-yl]amino]pyrimidin-2-yl]amino]pyridine-3-carboxylate] | 25.1 to 158 |
| 3.98 to 31.6 | Cc1cccc(-c2nccc(Nc3ccnc(Nc4cc(C(=O)OC5CNC5)ccn4)n3)n2)n1 [Compound 579, azetidin-3-yl 2-[[4-[[2-(6-methyl-2-pyridyl)pyrimidin-4-yl]amino]pyrimidin-2-yl]amino]pyridine-4-carboxylate] | 25.1 to 158 |
| 0.0398 to 0.316 | Cc1cccc(-c2nccc(Nc3ccnc(Nc4cncc(CN5CC(C(=O)OC6CCNCC6)C5)c4)n3)n2)n1 [Compound 565, 4-piperidyl 1-[[5-[[4-[[2-(6-methyl-2-pyridyl)pyrimidin-4-yl]amino]pyrimidin-2-yl]amino]-3-pyridyl]methyl]azetidine-3-carboxylate] | 25.1 to 158 |
| 3.98 to 31.6 | COC(=O)c1ccc(Nc2nccc(Nc3nc(-c4cccc(C)n4)ncc3C(=O)OC)n2)cc1 [Compound 1043, methyl 4-[[2-(4-methoxycarbonylanilino)pyrimidin-4-yl]amino]-2-(6-methyl-2-pyridyl)pyrimidine-5-carboxylate] |  |
| 0.398 to 3.16 | Cc1cccc(-c2ncc(C(=O)O)c(Nc3ccnc(Nc4ccc(N)cc4)n3)n2)n1 [Compound 1044, 4-[[2-(4-aminoanilino)pyrimidin-4-yl]amino]-2-(6-methyl-2-pyridyl)pyrimidine-5-carboxylic acid] |  |
| 3.98 to 31.6 | CNC(=O)Cc1cc(Nc2ccnc(Nc3ccc(N4CCNCC4)cc3)n2)nc(-c2cccc(C)n2)n1 [Compound 1008, N-methyl-2-[2-(6-methyl-2-pyridyl)-6-[[2-(4-piperazin-1-ylanilino)pyrimidin-4-yl]amino]pyrimidin-4-yl] acetamide] |  |
| 3.98 to 31.6 | Cc1cccc(-c2nccc(Nc3ccnc(Nc4ncc(N5CCNCC5)s4)n3)n2)n1 [Compound 640, N4-[2-(6-methyl-2-pyridyl)pyrimidin-4-yl]-N2-(5-piperazin-1-ylthiazol-2-yl)pyrimidine-2,4-diamine] |  |
